Data taken from patent publication US11339151B2, “Aliphatic acid amide derivative” (Sumitomo Dainippon Pharma Co., Ltd., priority 2019, dated 2022).

Key:
human D2 receptor = human D2 receptor (Homo sapiens (Human), UniProt P14416); assay: Test 1: binding activity for human D2 receptor ([3H]Spiperone, CHO cell membrane fraction); conditions: [3H]Spiperone, room temperature 60 minutes
Method: (§1) Ki value was evaluated from dissociation constant which was calculated from saturated binding tests, and a substrate concentration, and it was used as an index for binding affinity.

human 5-HT7 receptor [1] = target: T1, human 5-HT7 receptor (Homo sapiens (Human), UniProt P34969); assay: Test 2: antagonist activity for human 5-HT7 receptor (aequorin luminescence, CHO-K1 cells); type: cell-based; conditions: Gα16
Method: Test 2: Evaluation of Antagonist Activity for Human 5-HT2A Receptor and Human 5-HT7 Receptor
Aequorin, Gα 16 protein, and each receptor were transiently expressed in CHO-K1 cells (Chinese hamster ovary). The cells were cultivated in a CO2 incubator at 37° C. overnight, seeded into a 384-well plate, and stood at room temperature for 2 hours. Each compound dissolved in DMSO was added thereto, and changes in luminescence were measured by FDSS/μCELL drug discovery screening support system (Hamamatsu Photonics K.K.). As for antagonist activity, inhibitory activity of each compound was calculated by setting the luminescence level of wells to which 10 μmol/L endogenous ligand was added as 100%.

human 5-HT7 receptor [2] = target: T1, human 5-HT7 receptor; assay: Test 1: binding activity for human 5-HT7 receptor ([3H]SB-269970, CHO cell membrane fraction); conditions: [3H]SB-269970, room temperature 60 minutes
Method: as §1

hERG channel = hERG channel (Homo sapiens (Human), UniProt Q12809); assay: Test 5: inhibitory activity for hERG channel (whole cell patch clamp, hERG-CHO cells); type: cell-based; conditions: hERG-CHO cells, auto patch clamp
Method: Test 5: Evaluation of Inhibitory Activity for hERG Channel
Inhibitory activity of the present compound for hERG channel was measured by whole cell patch clamp method with an auto patch clamp system using CHO cells in which hERG channel involved in human rapidly activating delayed rectifier potassium current (IKr) was forcibly expressed.
hERG-CHO cells purchased from ChanTest Cop. were cultured in a CO2 incubator at 37° C., and dissociated from a flask with trypsin shortly before the measurement of hERG current to prepare a cell suspension.
The cell suspension, the extracellular fluid, the intracellular fluid, and the measurement plate were set in an auto patch clamp system, and hERG current was measured by whole cell patch clamp method. […] Each pulse interval was 15 seconds. The data analysis was carried out with Qube Assay Software (Sophion Sophion). The test was carried out by applying incrementally 4 concentrations of each test compound, and the average of the maximum peak tail currents which were obtained from the last 3 stimulations in each concentration was determined as the evaluated data.

[3] = Test 3-1: metabolic stability test in human hepatic microsome; type: in vitro ADME; conditions: microsome 0.1 mg/mL, test compound 0.1 μmol/L, 37° C., 30 minutes
Method: Test 3-1: Metabolic Stability Test in Human Hepatic Microsome
The metabolic stability of the present compound in human hepatic microsome was evaluated as mentioned below. Human hepatic microsome was obtained from Xenontech. Human hepatic microsome, NADPH, and each test compound were mixed in 25 mmol/L phosphate buffer solution (pH 7.4) to reach the following concentrations as shown below, and the mixture was incubated at 37° C. for 30 minutes. • Human hepatic microsome: 0.1 mg/mL • NADPH: 3.2 mmol/L • Test compound: 0.1 μmol/L
The residual ratio of test compound in each sample after 30 minutes was measured by LC-MS, and the metabolic stability in human hepatic microsome was calculated from the following formula. Metabolic stability in human hepatic microsome (mL/min/mg protein)=−LN (residual ratio)/30/0.1

Chain of human D2 receptor (P14416 whole entry): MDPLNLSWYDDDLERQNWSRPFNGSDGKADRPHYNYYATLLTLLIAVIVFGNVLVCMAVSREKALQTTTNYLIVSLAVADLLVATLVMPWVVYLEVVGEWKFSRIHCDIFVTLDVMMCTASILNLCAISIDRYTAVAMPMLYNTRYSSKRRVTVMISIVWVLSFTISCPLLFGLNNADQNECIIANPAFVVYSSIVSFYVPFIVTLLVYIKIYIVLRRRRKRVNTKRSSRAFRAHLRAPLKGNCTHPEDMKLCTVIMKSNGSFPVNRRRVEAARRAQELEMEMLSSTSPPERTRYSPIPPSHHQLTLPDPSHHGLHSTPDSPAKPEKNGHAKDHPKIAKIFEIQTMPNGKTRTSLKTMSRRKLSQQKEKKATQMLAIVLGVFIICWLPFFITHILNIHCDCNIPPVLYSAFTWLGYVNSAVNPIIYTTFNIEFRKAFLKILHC
T1 sequence (P34969 whole entry): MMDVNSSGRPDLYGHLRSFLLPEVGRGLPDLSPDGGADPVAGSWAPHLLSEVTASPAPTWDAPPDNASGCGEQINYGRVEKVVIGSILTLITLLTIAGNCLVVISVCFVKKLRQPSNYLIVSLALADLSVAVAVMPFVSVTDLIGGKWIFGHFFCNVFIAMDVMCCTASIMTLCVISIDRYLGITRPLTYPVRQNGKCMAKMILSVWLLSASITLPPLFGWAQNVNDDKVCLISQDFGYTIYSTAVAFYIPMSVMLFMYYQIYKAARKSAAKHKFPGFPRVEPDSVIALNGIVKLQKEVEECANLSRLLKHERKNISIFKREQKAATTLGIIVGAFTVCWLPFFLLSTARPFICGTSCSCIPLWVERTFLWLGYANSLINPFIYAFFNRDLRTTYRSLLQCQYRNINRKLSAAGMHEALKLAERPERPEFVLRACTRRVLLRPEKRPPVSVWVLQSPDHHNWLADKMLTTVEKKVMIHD
Chain of hERG channel (Q12809 whole entry): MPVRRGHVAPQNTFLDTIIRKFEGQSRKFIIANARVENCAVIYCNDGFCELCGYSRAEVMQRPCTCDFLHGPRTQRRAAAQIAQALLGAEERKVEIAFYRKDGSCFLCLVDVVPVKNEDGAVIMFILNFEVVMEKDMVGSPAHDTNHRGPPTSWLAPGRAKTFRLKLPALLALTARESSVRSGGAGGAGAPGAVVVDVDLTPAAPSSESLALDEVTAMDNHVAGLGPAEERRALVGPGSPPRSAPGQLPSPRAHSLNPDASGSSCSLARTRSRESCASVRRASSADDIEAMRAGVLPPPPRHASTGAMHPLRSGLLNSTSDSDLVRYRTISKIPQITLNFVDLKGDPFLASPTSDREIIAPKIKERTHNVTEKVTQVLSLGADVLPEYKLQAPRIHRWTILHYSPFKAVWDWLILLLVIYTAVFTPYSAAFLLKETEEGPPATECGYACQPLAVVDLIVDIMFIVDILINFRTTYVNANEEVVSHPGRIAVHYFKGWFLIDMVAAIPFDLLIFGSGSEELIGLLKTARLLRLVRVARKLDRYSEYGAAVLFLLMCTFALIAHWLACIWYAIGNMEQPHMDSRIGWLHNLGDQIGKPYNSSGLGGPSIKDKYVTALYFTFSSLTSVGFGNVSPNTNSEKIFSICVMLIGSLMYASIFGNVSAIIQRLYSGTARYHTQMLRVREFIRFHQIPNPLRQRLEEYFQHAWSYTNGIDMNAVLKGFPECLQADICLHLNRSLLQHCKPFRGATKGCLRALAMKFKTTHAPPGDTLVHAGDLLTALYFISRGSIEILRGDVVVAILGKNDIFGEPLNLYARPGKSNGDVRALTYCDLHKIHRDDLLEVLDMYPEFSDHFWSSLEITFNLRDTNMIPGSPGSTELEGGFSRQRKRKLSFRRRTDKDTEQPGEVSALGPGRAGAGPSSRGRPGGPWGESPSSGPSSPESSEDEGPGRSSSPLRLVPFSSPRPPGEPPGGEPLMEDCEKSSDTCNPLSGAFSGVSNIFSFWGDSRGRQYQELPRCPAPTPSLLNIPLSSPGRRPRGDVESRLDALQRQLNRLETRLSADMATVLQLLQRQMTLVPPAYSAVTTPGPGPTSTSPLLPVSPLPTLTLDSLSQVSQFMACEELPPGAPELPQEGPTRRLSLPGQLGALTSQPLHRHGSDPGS

| Ki (human D2 receptor) [µM] | IC50 (human 5-HT7 receptor [1]) [µM] | Ki (human 5-HT7 receptor [2]) [µM] | Metabolic stability in human hepatic microsome [3] [mL/min/mg protein] | Structure (SMILES) | IC50 (hERG channel) [µM] |
| --- | --- | --- | --- | --- | --- |
| < 0.1 | 0.008 | 0.0106 | 0.057 | CCN(CCN1CCC(c2noc3cc(F)ccc23)CC1)C(=O)C1(O)CCCN(C(C)=O)C1 (centres unmarked) [Example 72] | 9.9 |
| 0.212 | 0.07 | 0.0054 | <0.05 | CCN(CCN1CCC(c2noc3cc(F)ccc23)CC1)C(=O)C1CNCC1O (centres unmarked) [Example 66] | > 10 |
| 0.193 | 0.065 | 0.0144 | <0.05 | CCN(CCN1CCC(c2noc3cc(F)ccc23)CC1)C(=O)C1CN(C)CCC1O (centres unmarked) [Example 76, N-Ethyl-N-{2-[4-(6-fluoro-1,2-benzoisoxazol-3-yl)piperidin-1-yl]ethyl}-4-hydroxy-1-methylpiperidine-3-carboxamide] | > 10 |
| 0.104 | 0.028 | 0.0028 | <0.05 | CCN(CCN1CCC(c2c[nH]c3cc(F)ccc23)CC1)S(=O)(=O)CCO [Example 62] | 5.4 |
| 0.124 | 0.08 | 0.0036 | <0.05 | CCN(CCN1CCC(c2noc3cc(F)ccc23)CC1)C(=O)C1CN(C)CC1O (centres unmarked) [Example 75, N-Ethyl-N-{2-[4-(6-fluoro-1,2-benzoisoxazol-3-yl)piperidin-1-yl]ethyl}-4-hydroxy-1-methylpyrrolidine-3-carboxamide] | 3.8 |
| > 1 | 0.103 | 0.0194 | <0.05 | CCN(CCN1CCC(c2noc3cc(F)c(C)cc23)CC1)S(=O)(=O)CCO [Example 58] | > 10 |
| 0.348 | 0.101 | 0.0024 | 0.097 | CCN(CCN1CCC(n2ncc3cc(F)ccc32)CC1)S(=O)(=O)C(C)CO (centres unmarked) [Example 64] | > 10 |
| < 0.1 | 0.085 | 0.0015 | <0.05 | CCN(CCN1CCC(c2noc3cc(F)ccc23)CC1)C(=O)C1(O)CCCNC1 (centres unmarked) [Example 69] | > 10 |
| 0.514 | 0.015 | 0.0127 | <0.05 | CCN(CCN1CCC(c2noc3ccccc23)CC1)S(=O)(=O)CCO [Example 61] | > 10 |
| 0.052 | 0.009 | 0.0037 | <0.05 | CCN(CCN1CCC(c2noc3cc(F)ccc23)CC1)C(=O)C1(O)CCNC1 (centres unmarked) [Example 70] | > 10 |

More lines, now with the values behind:

| Structure (SMILES) | Ki (human D2 receptor) [µM] | IC50 (human 5-HT7 receptor [1]) [µM] | Ki (human 5-HT7 receptor [2]) [µM] | Metabolic stability in human hepatic microsome [3] [mL/min/mg protein] | IC50 (hERG channel) [µM] |
| --- | --- | --- | --- | --- | --- |
| CCN(CCN1CCC(c2noc3cc(F)ccc23)CC1)C(=O)C(C)(C)O [Example 6] | 0.278 | 0.066 | 0.0057 | 0.053 | 1.5 |
| CCN(CCN1CCC(c2noc3cc(F)ccc23)CC1)C(=O)CO [Example 12] | – | 0.082 | 0.0069 | 0.089 | 2.2 |
| CC(O)C(=O)N(CCN1CCC(c2noc3cc(F)ccc23)CC1)CC1CC1 (centres unmarked) [Example 30] | 0.153 | 0.039 | 0.0066 | <0.05 | 1.2 |
| [2H]C(C)(O)C(=O)N(CC)CCN1CCC(c2noc3cc(F)ccc23)CC1 (centres unmarked) [Example 40] | – | – | – | <0.05 | 9.9 |
| CCN(CCN1CCC(c2noc3cc(F)ccc23)CC1)C(=O)C(O)C(C)C (centres unmarked) [Example 8] | 0.294 | 0.008 | 0.0062 | 0.108 | 4.2 |
| CC(C)N(CCN1CCC(c2noc3cc(F)ccc23)CC1)C(=O)[C@H](C)O [Example 41] | < 0.1 | 0.007 | 0.0018 | <0.05 | 6.7 |
| CCN(CCN1CCC(c2noc3cc(F)ccc23)CC1)C(=O)C(C)O (centres unmarked) [Example 4] | – | – | – | <0.05 | 7.1 |
| CCN(CCN1CCC(c2c[nH]c3ccccc23)CC1)C(=O)CCO [Example 47] | 0.457 | 0.043 | 0.0089 | <0.05 | 5.4 |
| CCN(CCN1CCC(c2c[nH]c3ccccc23)CC1)C(=O)[C@H](C)O [Example 23, (2S)—N-Ethyl-2-hydroxy-N-{2-[4-(1H-indol-3-yl)piperidin-1-yl]ethyl}propanamide] | > 1 | 0.068 | 0.0079 | <0.05 | > 10 |
| CC[C@@H](O)C(=O)N(CC)CCN1CCC(c2noc3cc(F)ccc23)CC1 [Example 29] | 0.146 | 0.099 | 0.0026 | <0.05 | 0.9 |
| CCN(CCN1CCC(c2noc3cc(F)ccc23)CC1)C(=O)C1CCCCC1O (centres unmarked) [Example 33] | 0.055 | 0.059 | 0.0016 | 0.268 | 2.2 |
| CCN(CCN1CCC(c2noc3cc(F)ccc23)CC1)C(=O)CC(C)O (centres unmarked) [Example 10] | < 0.1 | 0.009 | 0.0027 | <0.05 | 3.6 |
| CCN(CCCN1CCC(c2noc3cc(F)ccc23)CC1)S(=O)(=O)C(C)CO (centres unmarked) [Example 56] | < 0.1 | 0.006 | 0.0004 | <0.05 | 2.1 |
| CCN(CCN1CCC(c2noc3cc(F)ccc23)CC1)C(=O)[C@@H](C)O [Example 1, (2R)—N-Ethyl-N-{2-[4-(6-fluoro-1,2-benzoisoxazol-3-yl)piperidin-1-yl]ethyl}-2-hydroxypropanamide] | – | – | – | <0.05 | 4.8 |
| CCN(CCN1CCC(c2noc3ccccc23)CC1)C(=O)C(C)O (centres unmarked) [Example 25] | 1.39 | 0.026 | 0.0077 | <0.05 | > 10 |
| CCN(CCN1CCC(c2noc3ccc(C)cc23)CC1)C(=O)[C@H](C)O [Example 14] | > 1 | 0.082 | 0.0146 | – | 9.6 |
| CCN(CCN1CCN(c2noc3cc(F)ccc23)CC1)C(=O)C(C)O (centres unmarked) [Example 27] | 2.16 | 0.073 | 0.0111 | <0.05 | > 10 |
| CCN(CCN1CCC(c2c[nH]c3cc(F)ccc23)CC1)C(=O)CCO [Example 48] | 0.08 | 0.018 | 0.0027 | <0.05 | 2.9 |
| CC(C)N(CCN1CCC(c2noc3cc(F)ccc23)CC1)C(=O)[C@@H](C)O [Example 42] | 0.074 | 0.009 | 0.0025 | <0.05 | 6.4 |
| CCN(CCN1CCC(n2ncc3cc(F)ccc32)CC1)C(=O)[C@H](C)O [Example 21, (2S)—N-Ethyl-N-{2-[4-(5-fluoro-1H-indazol-1-yl)piperidin-1-yl]ethyl}-2-hydroxypropanamide] | > 1 | – | – | <0.05 | 15.3 |
| CCN(CCN1CCC(n2ncc3cc(F)ccc32)CC1)C(=O)[C@@H](C)O [Example 3, (2R)—N-Ethyl-N-{2-[4-(5-fluoro-1H-indazol-1-yl)piperidin-1-yl]ethyl}-2-hydroxypropanamide] | > 1 | – | – | <0.05 | > 10 |
